This test deals with M. tuberculosis H37Rv growth inhibition. As to the kind of experiment: M. tuberculosis H37Rv growth inhibitors, H37Rv strain (AID 1626). Conditions: for IC90: measured here: IC90 against H37Rv; for CC50: measured here: Vero cell cytotoxicity.

Drawing on PubChem BioAssay AID1626 (SRMLSC, 2009), this text covers IC50, IC90 and CC50 for 65 molecules.

With `Cc1c(CNC(=O)c2cnn3c2NC(c2ccc(Br)cc2)CC3C(F)(F)F)cnn1C` (stereo not drawn), the IC50 is 4.09 µM and the IC90 stood at 6.49 µM.
Turning to `O=Cc1ccc2noc(-c3ccc(F)cc3)c2c1`, the concentration for an effect of 90% (IC90) is greater than 100 µM.
For the molecule `COCCCN=C1NN=C(c2cc(C)n(-c3ccccc3F)c2C)CS1`, the IC50 is 5.21 µM, the IC90 was 7.08 µM and the CC50 is 21.7 µM.
On to `O=C(/C=C/c1ccc(Cl)c([N+](=O)[O-])c1)c1cccnc1`, for which the IC50 is 1.18 µM, the IC90 stood at 2.47 µM and the CC50 was 38.8 µM.
On the same counts, the results for `CCC(=O)Nc1nc2ccccc2n1Cc1ccc(Cl)cc1` are less than 0.195 µM, greater than 100 µM and greater than 40 µM.
With `CCCNC(=O)c1nnsc1S(=O)c1ccc(Cl)cc1` (stereo not drawn), the IC50 is 8.74 µM, the IC90 was found to be 10.5 µM and the CC50 came out at 8.53 µM.
Taken in the same sequence, the figures for `O=C(O)c1cn(-c2ccc(N3CCCC3)c(F)c2)c2c(F)c(F)c(F)cc2c1=O` were 4.59 µM, 9.57 µM and greater than 40 µM.
Regarding `O=C1/C(=C/c2cccnc2)Oc2cc(OS(=O)(=O)c3ccc(F)cc3)ccc21`, the IC50 was 72.6 µM and the IC90 is greater than 100 µM.
On the same counts, the results for `Cc1cc2ccccc2n1CCNC(=O)COc1ccc2ccccc2c1` are 52.5 µM and greater than 100 µM.
On to `O=[N+]([O-])c1ccc(-n2nnnc2-c2ccccc2)c([N+](=O)[O-])c1`, for which the IC50 was 5.8 µM, the IC90 was 9.88 µM and the CC50 amounted to 10.7 µM.
`CNC(=O)c1c(NC(=O)c2nc3ccccc3s2)sc2c1CCC2` had a CC50 greater than 40 µM.
`N#Cc1ccc(C(=O)Nc2nnc(-c3ccco3)o2)cc1`: the IC50 is 7.95 µM, the IC90 was greater than 100 µM and the CC50 is greater than 40 µM.
Taken in the same sequence, the figures for `COc1ccc(/C=C2/Sc3ccc(C(=O)N4CCc5ccccc5C4)cc3NC2=O)cc1` were 20 µM, greater than 100 µM and greater than 40 µM.
Consider `O=c1c2ccccc2c(C=NC2CCN(Cc3ccccc3)CC2)c(O)n1Cc1ccc2c(c1)OCO2`, for which the IC50 is 6.36 µM, the IC90 stood at 12.2 µM and the cytotoxic concentration (CC50) is greater than 40 µM.
With `Oc1ccc2cc(Br)ccc2c1CN1CCCC1`, the IC50 is 22.2 µM, the IC90 is greater than 100 µM and the CC50 was greater than 40 µM.
`COc1ccc(CNC[C@@H](CCCCN(C)Cc2ccc(OC)cc2)N2C[C@H](c3ccccc3)N(CCc3ccc(Cl)c(Cl)c3)C(=O)C2=O)cc1`: the IC50 was 12.2 µM, the IC90 was 19.2 µM and the CC50 amounted to 11.5 µM.
`COc1ccc(/C=C/C(=O)c2ccc(C)c([N+](=O)[O-])c2)cc1O` came in with a concentration for an effect of 90% (IC90) greater than 100 µM and a CC50 of 34.8 µM.
For the molecule `Cc1cc(NC(=O)c2ccccc2)n(-c2nc3ccccc3[nH]2)n1`, the IC50 was 60.4 µM, the IC90 is greater than 100 µM and the CC50 was 27.9 µM.
As to `O=C(/C=C/c1cccc([N+](=O)[O-])c1)NC1CC2CCC1C2` (stereo not drawn), the IC50 was 6.04 µM and the IC90 was greater than 100 µM.
Taken in the same sequence, the figures for `CCOC(=O)COc1ccc(-c2nnc(-c3ccccc3)o2)cc1` were 0.409 µM and 3.76 µM.
For `CC1=Nc2ccccc2/C1=C\c1nc(-c2ccc(C(F)(F)F)cc2)oc1O`, the IC50 was 1.71 µM, the IC90 is greater than 100 µM and the CC50 was greater than 40 µM.
As to `C=CCSc1nnc(-c2ccc([N+](=O)[O-])cc2)o1`, the IC50 was less than 0.195 µM and the IC90 was found to be 0.843 µM.
On the same counts, the results for `O=C(OCC(=O)c1c[nH]c2ccccc12)c1ccc([N+](=O)[O-])s1` are 1.21 µM and 1.93 µM.
With `COC(=O)c1cccc(NC(=O)NC23CC4CC(CC(C4)C2)C3)c1`, the IC50 was 23.9 µM, the IC90 was greater than 100 µM and the CC50 is greater than 40 µM.
`CCOc1ccc(N2C(=O)c3ccccc3C2=O)cc1`: the IC90 was greater than 100 µM.
`CCOc1ccc(Nc2nc(N)nc(CN3CCN(c4ccccc4F)CC3)n2)cc1`: the 50% inhibitory concentration (IC50) is 7.83 µM and the IC90 is 16.8 µM.
`CCOc1ccc(N=CC2=C(O)CC(C)(C)CC2=O)cc1` yielded an IC90 greater than 100 µM.
On to `COC(=O)CCCC(=O)Nc1ccc(Cl)c(Cl)c1`, for which the IC50 was 23.1 µM and the IC90 was greater than 100 µM.
Turning to `Cn1cnc([N+](=O)[O-])c1S(=O)(=O)c1cccc(Cl)c1`, the IC50 is 10.9 µM, the IC90 was 11.8 µM and the CC50 stood at 18.7 µM.
`Cc1ccc(NC(=O)NCC2CCN(Cc3cccc(Cl)c3)CC2)cc1Cl`: the IC50 is 11.6 µM, the IC90 worked out at 31.2 µM and the CC50 is 29.4 µM.
For the molecule `CCCCCCC(=O)Nc1nc(C)c(-c2csc(Nc3ccccc3OC)n2)s1`, the IC50 was 5.48 µM, the IC90 was determined as 9.63 µM and the CC50 was greater than 40 µM.
On to `N=C1SCC(=O)N1c1ncc(Cc2ccc(F)cc2)s1`, for which the IC50 is less than 0.195 µM, the IC90 was greater than 100 µM and the CC50 is greater than 40 µM.
`O=C(CSc1nnc(-c2cccs2)o1)OC1CCCCC1`: the IC50 was 2.23 µM and the IC90 was 7.65 µM.
In the case of `O=C(Nc1nc2ccccc2n1CCN1CCOCC1)c1ccc(Cl)cc1`, the IC50 was 26.5 µM, the IC90 was greater than 100 µM and the CC50 is greater than 40 µM.
Taken in the same sequence, the figures for `COc1ccc(C(CCNCc2ccc(F)cc2)c2ccc(F)cc2)cc1` (stereo not drawn) were 5.7 µM, 6.62 µM and 23.2 µM.
Consider `CCC(=O)OCCNc1cc(SCCC(=O)OC)c2nonc2c1[N+](=O)[O-]`, for which the IC50 was 12.2 µM and the IC90 stood at 19.5 µM.
The molecule `C=C1C2(C(=O)Nc3ccc(SC(F)F)cc3)CCC(C2)C1(C)C` (stereo not drawn) gave an IC90 greater than 100 µM.
For the molecule `N=C(N)c1ccc(OCCCCCOc2ccc(C(=N)N)cc2)cc1`, the IC50 is 1.51 µM, the IC90 is 1.72 µM and the CC50 is greater than 40 µM.
As for `CCOC(=O)Nc1ccc(C(=O)Oc2ccccc2)c(O)c1`, the IC50 was less than 0.195 µM, the IC90 was greater than 100 µM and the CC50 was greater than 40 µM.
Taken in the same sequence, the figures for `Cc1cc(C(=O)CCl)c(C)n1-c1cccc([N+](=O)[O-])c1` were 8.96 µM, 15.7 µM and 20.3 µM.
On the same counts, the results for `O=C(/C=C/c1ccccc1)C1C(=O)c2ccccc2C1=O` are 23.5 µM, 26.5 µM and 32.1 µM.
Turning to `COC(=O)c1nc(-c2ccc3c(n2)C(=O)C(N)=C(OC)C3=O)c(N)c(-c2ccc(OC)c(OC)c2O)c1C`, the IC90 was greater than 100 µM and the CC50 was found to be 1.35 µM.
In the case of `Cc1cc(N)c2cc(NC(=O)/C=C/c3ccccc3Cl)ccc2n1`, the half-inhibitory concentration (IC50) was 1.68 µM, the IC90 came to 2.84 µM and the 50% cytotoxic concentration (CC50) amounted to 1.76 µM.
Turning to `COc1ccc(-c2cc(O)cc(O)c2)cc1`, the IC50 was 8.79 µM and the concentration for an effect of 90% (IC90) was greater than 100 µM.
On the same counts, the results for `CCCCCC(=O)Nc1ccc(-c2csc(C)n2)cc1` are 46 µM and greater than 100 µM.
Take `CCN1CCN(Cc2ccc(NC(=O)c3ccc(C)c(NC(=O)c4cc(-c5ccc(Br)cc5)n[nH]4)c3)cc2C(F)(F)F)CC1`: the IC50 is 2.16 µM, the IC90 worked out at 2.85 µM and the CC50 came to 13 µM.
For the molecule `Cc1cc(NC(=O)CCN2C(=O)C3C4C=CC(C4)C3C2=O)ccc1Br` (stereo not drawn), the IC50 was 35.3 µM and the IC90 is greater than 100 µM.
Take `CC(C)Nc1ccc(Nc2ccnc3cc4ccccc4cc23)cc1`: the IC50 is 5.31 µM, the IC90 is 9.7 µM and the CC50 is 3.3 µM.
`Cc1ccc(NC(=O)c2sc3nc(C)nc(N4CCN(c5ccccn5)CC4)c3c2C)c(C)c1`: the IC50 was 10.7 µM and the IC90 is greater than 100 µM.
For `CCCCOC(=O)CSc1nc(N)c(C#N)c(-c2ccc(OC)cc2)c1C#N`, the half-maximal inhibitory concentration (IC50) is 1.14 µM and the IC90 was 2.39 µM.
On the same counts, the results for `Nc1ccc2oc(-c3cccc(Br)c3)nc2c1` are 3.98 µM and greater than 100 µM.
`CCOC(=O)c1ccc(NC(=O)Cc2coc3cc4c(cc23)CCC4)cc1`: the IC50 is 6.36 µM, the IC90 was greater than 100 µM and the CC50 was greater than 40 µM.
Taken in the same sequence, the figures for `CCn1c(NC(=O)c2ccccc2)nc2ccccc21` were 1.71 µM, 8.64 µM and greater than 40 µM.
On the same counts, the results for `CC(=O)n1cc(N(C(=O)CCl)c2ccc([N+](=O)[O-])cc2)c2ccccc21` are 14 µM, 30.3 µM and 14.7 µM.
Turning to `O=C1Nc2ccccc2C1=Nc1ccc(S(=O)(=O)Nc2nccs2)cc1`, the IC50 was 4.54 µM and the IC90 turned out to be 11.3 µM.
Turning to `O=C(/C=C/c1ccc(Br)cc1)c1ccco1`, the IC50 was 14.5 µM, the IC90 came to 21.3 µM and the CC50 was greater than 40 µM.
As to `C[C@H](NC(=O)c1[nH]cnc1C(=O)Nc1ccccc1)C(=O)OC(C)(C)C`, the IC50 is 1.68 µM, the IC90 stood at 5.62 µM and the CC50 is greater than 40 µM.
Taken in the same sequence, the figures for `CC1CCN(c2nc(-c3ccncc3)nc3ccccc23)CC1` were 4.62 µM, 6.52 µM and greater than 40 µM.
On the same counts, the results for `Cc1sc2cc3c(c(C(=O)c4ccccc4)[n+]2c1C)-c1cccc2cccc-3c12` are 1.52 µM, 2.33 µM and greater than 40 µM.
Consider `CCCOC(=O)c1ccc(NC(=O)COC)cc1`, for which the IC50 is 11.9 µM and the IC90 is greater than 100 µM.
Turning to `CC(C)Cc1c(O)nc(SCC(=O)Nc2ccc3c(c2)CCC3)[nH]c1=O`, the IC90 is greater than 100 µM.
`CCOc1ccc2nc(/N=C/c3nc(-c4ccccc4)oc3O)sc2c1`: the IC50 is 6.82 µM and the IC90 is greater than 100 µM.
For `Cc1cc(NC(=O)c2ccc(C)s2)n(-c2nc3ccccc3[nH]2)n1`, the CC50 was greater than 40 µM.
Turning to `CN(C)c1ccc(C(=O)Nc2nnc(-c3ccc(Cl)cc3)o2)cc1`, the IC50 was 0.895 µM, the IC90 is greater than 100 µM and the CC50 is greater than 40 µM.
As to `O=[N+]([O-])c1cc(C=Nc2ccc3ccccc3c2)ccc1Br`, the IC50 is 5.95 µM and the IC90 was greater than 100 µM.

One may read the IC50 as the point on the concentration scale where inhibition reaches its midpoint. As a reminder, the IC90 is the concentration at which the effect reaches the 90% level. The low end stands for an effect from little substance, the high end for a need for much substance. What is called CC50 is the concentration giving 50% cytotoxicity.
